Article PMC6677754, “In silico design and optimization of selective membranolytic anticancer peptides” (Scientific Reports, 2019)
Peptide text beside a SMILES is read from it.

Experiments:
[1] = tested on: noncancer HDMEC primary cells (human dermal microvascular endothelial cells); test: Cell viability assay (MTT); type: cell-based; conditions: for EC50: Table S2, noncancer primary cells, MTT, 24 h, mean ± sd, N = 2 independent measurements with six technical replicates each (Figs S6-S8)
Summary of the method: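 Viability by MTT: 10^4 cells/well exposed 24 h to 2-fold peptide dilutions from 100 μM in DMEM, then 1 h with 0.5 mg mL−1 MTT; absorbance at 540 nm relative to peptide-free medium as 100% survival. EC50 from a 3-parameter log-logistic fit.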

[2] = tested on: human erythrocytes; test: Hemolysis assay; type: cell-based; conditions: for Eryhtr. HC50 /µM: 1 h
Summary of the method: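 Washed human erythrocytes (5% v/v in PBS) were mixed with peptide plated as a 200–6.25 μM series, in triplicate, for 1 h at 37 °C. Released haemoglobin in the supernatant was read at 540 nm, scaled to 0.1% Triton X-100 (100%) and PBS (0%). HC50 came from a 3-parameter log-logistic fit.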

[3] = Fig. 1d, compared with the EC50 against cancer cell lines, N = 3

Compound | EC50 [1] | Eryhtr. HC50 /µM ([2]; red cells of human) | EC50 value against the noncancer HDMEC primary cell line (in words) [1, 3] | half-effective hemolytic concentration (HC50) against human erythrocytes (in words) [2, 3] | Eryhtr. HC50 /µM ([2]; Table S2, 5% v/v erythrocytes in PBS added 1:1, peptide 200 to 6.25 µM, 37°C, absorbance 540 nm, 0.1% Triton-X-100 = 100%, mean ± sd, N = 2 independent, three technical replicates)
CC[C@H](C)[C@H](NC(=O)[C@H](CCCCN)NC(=O)[C@H](CCCCN)NC(=O)[C@@H](NC(=O)[C@@H](NC(=O)[C@@H](N)Cc1c[nH]cn1)[C@@H](C)CC)[C@@H](C)CC)C(=O)N[C@@H](CCCNC(=N)N)C(=O)N[C@H](C(=O)N[C@@H](Cc1c[nH]c2ccccc12)C(=O)N[C@@H](Cc1ccc(O)cc1)C(=O)N[C@@H](CCCNC(=N)N)C(=O)N[C@@H](CCCCN)C(=O)N[C@@H](C)C(=O)N[C@@H](Cc1c[nH]c2ccccc12)C(=O)N[C@@H](Cc1c[nH]cn1)C(=O)N[C@H](C(=O)N[C@@H](CC(C)C)C(=O)NCC(=O)N[C@@H](CCCCN)C(=O)N[C@H](C(N)=O)C(C)C)C(C)C)[C@@H](C)O [Off2] (H-HIIKKIRTWYRKAWHVLGKV-NH2) | 32 ± 3 µM | > 200 µM | – | – | –
CC[C@H](C)[C@H](NC(=O)[C@H](CCCNC(=N)N)NC(=O)[C@H](Cc1c[nH]c2ccccc12)NC(=O)[C@@H](NC(=O)[C@H](CCCCN)NC(=O)[C@H](CCCCN)NC(=O)[C@@H](NC(=O)[C@@H](NC(=O)[C@@H](NC(=O)[C@H](CCCCN)NC(=O)[C@H](Cc1ccccc1)NC(=O)[C@H](CCCCN)NC(=O)[C@H](CCCCN)NC(=O)[C@H](Cc1ccccc1)NC(=O)[C@@H](NC(=O)[C@@H](N)CCCCN)[C@@H](C)CC)[C@@H](C)O)[C@@H](C)CC)[C@@H](C)CC)C(C)C)C(=O)N[C@@H](Cc1ccccc1)C(=O)NCC(=O)N[C@@H](CCCNC(=N)N)C(=O)N[C@@H](Cc1ccccc1)C(N)=O [AmphiArc2] (H-KIFKKFKTIIKKVWRIFGRF-NH2) | 3.3 ± 0.2 µM | – | same low-micromolar range | same low-micromolar range | 16 ± 2 µM
